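Assay format: 96-well plates, 48-hour exposure. The concentration for 50% growth inhibition is given as GI50.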 Calls of active or inactive are those of the source. Rule as the data show it: active = GI50 up to about 1.1 µM and inactive = higher. Some results are limits rather than exact numbers.

Some test systems named below: LXFL 529; RXF 631; HOP-18; XF498; KM-20L2; SNB-78; M19-MEL; DMS-273; DMS-114.
Holding throughout (assay): NCI-60 cell line screen, 48 h

For the compound `CC(C)Cc1ccc(C(C)/C=C2\CCC(CN3CCCC3)C2=O)cc1` (stereo not given), the GI50 is 2.15 µM (inactive) in the assay with LXFL 529; 20.2 µM (inactive) in the assay on RXF 631; 19.2 µM (inactive) in the assay with HOP-18; 8.73 µM (inactive) in the assay on XF498; 14.4 µM (inactive) in the assay with KM-20L2; 19.4 µM (inactive) in the assay with SNB-78. Also, the values for the GI50 in the assay with M19-MEL, in the assay with DMS-273 and in the assay with DMS-114 were 3.84 µM (inactive), 4.5 µM (inactive) and 3.8 µM (inactive), respectively.

Take `COc1ccc(C2Oc3cc(OC)c(OC)cc3C2CCl)cc1OC` (stereo not given): the GI50 in the assay with LXFL 529, in the assay on XF498, with KM-20L2, in the assay on M19-MEL, in the assay with DMS-273 and in the assay with DMS-114 was > 100 µM (inactive) each time.

For `Cc1cc(C)nc(NS(=O)(=O)c2ccc(NC(=O)c3ccc(Cl)c4c(Nc5ccc(S(=O)(=O)N=C(N)N)cc5)c5ccccc5nc34)cc2)n1`, the GI50 is 44.3 µM (inactive) with LXFL 529; > 100 µM (inactive) in the assay with HOP-18; > 100 µM (inactive) in the assay with XF498; 50.2 µM (inactive) in the assay on KM-20L2; > 100 µM (inactive) in the assay with SNB-78; 33.5 µM (inactive) in the assay on DMS-273. The GI50 in the assay on DMS-114 was 29.9 µM (inactive).

With `O=C(Oc1ccc(Cl)cc1[N+](=O)[O-])c1ccccc1`, the GI50 with LXFL 529 was > 100 µM (inactive); in the assay on HOP-18, > 100 µM (inactive); in the assay on XF498, 0.0435 µM (active); in the assay on KM-20L2, > 100 µM (inactive); in the assay on SNB-78, > 100 µM (inactive); in the assay with M19-MEL, > 100 µM (inactive). The GI50 in the assay on DMS-273 and with DMS-114 was > 100 µM (inactive) throughout.

For `N=C(N)NS(=O)(=O)c1ccc(NCCc2c3ccccc3nc3ccccc23)cc1`, the GI50 was > 100 µM (inactive) in the assay on LXFL 529; 35.5 µM (inactive) in the assay with RXF 631; > 100 µM (inactive) with KM-20L2; > 100 µM (inactive) in the assay on M19-MEL; 72.4 µM (inactive) with DMS-273; 28.3 µM (inactive) with DMS-114.

For `CCCCN(CCCC)c1c([N+](=O)[O-])c(=O)nc2ccccn12`, the GI50 was 33 µM (inactive) in the assay on LXFL 529; 23.4 µM (inactive) with RXF 631; 32.2 µM (inactive) in the assay on XF498; 27.4 µM (inactive) in the assay with KM-20L2; 48.2 µM (inactive) in the assay with SNB-78; 8.67 µM (inactive) in the assay on M19-MEL. Moreover, the GI50 in the assay with DMS-114 is 21.7 µM (inactive).

For `CCC12CCCN(Cc3ccccc3)C1c1c(n(C)c3ccccc13)C(CO)C2` (stereo not given), the GI50 with LXFL 529 is 41 µM (inactive); in the assay with RXF 631 it was 56 µM (inactive); with XF498, 43.3 µM (inactive); in the assay on KM-20L2, 29.3 µM (inactive); in the assay on M19-MEL it was 59 µM (inactive); in the assay with DMS-273 it was 46.5 µM (inactive). The GI50 with DMS-114 is 37.8 µM (inactive).

For the compound `CC(C)=CC1C(C(=O)O)C1(C)C` (stereo not given) [CHRYSANTHEMIC ACID], the GI50 with HOP-18 was 197 µM (inactive); with XF498, 50.6 µM (inactive); in the assay with KM-20L2, > 750 µM (inactive); with M19-MEL it was > 750 µM (inactive); in the assay with DMS-273 it was > 750 µM (inactive); in the assay on DMS-114, > 750 µM (inactive).

With `N#Cc1c2nc3ccccc3nc2n2ccc3ccccc3c12`, the GI50 in the assay on LXFL 529, in the assay on HOP-18, in the assay on SNB-78, in the assay on M19-MEL, in the assay on DMS-273 and in the assay with DMS-114 was > 100 µM (inactive) in each case.

As for `CC(=O)NC1=C(NCc2ccc(Cl)cc2)C(=O)c2ccccc2C1=O`, the GI50 in the assay on LXFL 529 is 6.55 µM (inactive); with XF498 it was 1.44 µM (inactive); in the assay with KM-20L2, 24.3 µM (inactive); with SNB-78, 11 µM (inactive); in the assay with M19-MEL, 5.27 µM (inactive); in the assay on DMS-273, 7.67 µM (inactive).

Consider `CNC(=O)OCc1c(CO)nc(SC)n1C`, for which the GI50 in the assay with HOP-18, in the assay on XF498, in the assay with KM-20L2, with M19-MEL, in the assay on DMS-273 and in the assay with DMS-114 was > 100 µM (inactive) in each case.

`CCOC(=O)NC(=O)c1c[nH]c(=O)[nH]c1=O`: the GI50 in the assay on LXFL 529, with RXF 631, in the assay with HOP-18, with XF498, in the assay with KM-20L2 and with SNB-78 was > 100 µM (inactive) each time. In addition, the GI50 in the assay on M19-MEL, in the assay with DMS-273 and in the assay with DMS-114 was > 100 µM (inactive) each time.

As for `O=C(CC1(O)C(=O)Nc2c(Cl)cc(Cl)cc21)c1ccc2ccccc2c1` (stereo not given), the GI50 in the assay on LXFL 529 was 9.16 µM (inactive); in the assay with RXF 631 it was 7.08 µM (inactive); in the assay with HOP-18, 13.3 µM (inactive); with XF498 it was 11.6 µM (inactive); with KM-20L2 it was 3.56 µM (inactive); with SNB-78, 16.8 µM (inactive). The values for the GI50 in the assay on M19-MEL, in the assay on DMS-273 and with DMS-114 were 4.49 µM (inactive), 3.72 µM (inactive) and 4.69 µM (inactive), respectively.

As to `CC(=O)N/C(=C\c1cccc([N+](=O)[O-])c1)c1nc2ccc3c(c2[nH]1)C(=O)c1ccccc1C3=O`, the GI50 in the assay on LXFL 529 is 29.3 µM (inactive); in the assay with RXF 631 it was 32.6 µM (inactive); in the assay with XF498, 52.5 µM (inactive); in the assay with KM-20L2, > 100 µM (inactive); in the assay on SNB-78 it was > 57.9 µM (inactive); in the assay with M19-MEL, > 100 µM (inactive). The GI50 in the assay on DMS-114 was > 37.5 µM (inactive).

Turning to `Cc1cccc(NC(=O)c2c(N)[n+]([O-])c3ccccc3[n+]2[O-])c1`, the GI50 with LXFL 529 is 11 µM (inactive); in the assay with RXF 631, 1.77 µM (inactive); in the assay with HOP-18, 18.2 µM (inactive); in the assay on XF498, 11.4 µM (inactive); in the assay with KM-20L2, 16.6 µM (inactive); with SNB-78 it was 11.9 µM (inactive). Further, the GI50 with M19-MEL was 8.97 µM (inactive); in the assay with DMS-273, 9.51 µM (inactive).

With `COc1ccc(O)c(C#N)c1C#N.COc1ccc(OC)c(C#N)c1C#N`, the GI50 with XF498, with KM-20L2, with SNB-78, in the assay with M19-MEL and in the assay with DMS-273 was > 100 µM (inactive) in each case.

For `O=[N+]([O-])c1ccc(NC2OCC(O)C(O)C2O)cc1` (stereo not given), the GI50 with LXFL 529, in the assay with RXF 631, in the assay with XF498, in the assay with KM-20L2, in the assay on SNB-78 and in the assay with DMS-273 was > 100 µM (inactive) each time. Moreover, the GI50 with DMS-114 was > 100 µM (inactive).

`CN(CC#N)C1CCCC[C@H]1O` (stereo not given in full): the GI50 in the assay with LXFL 529, with HOP-18, with XF498, with KM-20L2, in the assay with SNB-78 and in the assay on DMS-273 was > 100 µM (inactive) each time. Moreover, the GI50 in the assay with DMS-114 is > 100 µM (inactive).

Turning to `COc1cc2ccc(CC#N)cc2cc1OC`, the GI50 with LXFL 529, in the assay with RXF 631, with XF498, with KM-20L2, in the assay with SNB-78 and in the assay with M19-MEL was > 100 µM (inactive) throughout. Further, the GI50 in the assay on DMS-273 and in the assay on DMS-114 was > 100 µM (inactive) each time.

For `N#Cc1cccc(/C=N/N/C(N)=N/O)c1`, the GI50 in the assay with LXFL 529 is 39.4 µM (inactive); with HOP-18 it was 15.7 µM (inactive); in the assay on XF498, 23.8 µM (inactive); in the assay on SNB-78, > 100 µM (inactive); in the assay with M19-MEL, > 100 µM (inactive); in the assay on DMS-273, > 100 µM (inactive).

As for `CCOC(=O)CC(=O)ON(C)C(C)=O`, the GI50 with LXFL 529, with XF498, in the assay with KM-20L2, in the assay with SNB-78, in the assay with M19-MEL and in the assay with DMS-114 was > 100 µM (inactive) in each case.

For `NN`, the GI50 in the assay on HOP-18 was 324 µM (inactive); in the assay with KM-20L2 it was 231 µM (inactive); with SNB-78 it was 1190 µM (inactive); in the assay on DMS-273, 132 µM (inactive).

For `CC1=C(CO)C(=O)OC(C(C)C2CCC3C4CC5OC56C(O)C(N5CC5)=CC(=O)C6(C)C4CCC23C)C1` (stereo not given), the GI50 in the assay with LXFL 529 was 4.32 µM (inactive); in the assay with RXF 631, 11.5 µM (inactive); in the assay with XF498, 5.3 µM (inactive); with KM-20L2 it was 3.05 µM (inactive); with SNB-78, 5.61 µM (inactive); in the assay with M19-MEL, 11.4 µM (inactive). Also, the GI50 was 5.65 µM (inactive) in the assay with DMS-273 and 2.13 µM (inactive) in the assay with DMS-114.

Take `c1ccc(C(c2ccccc2)c2cccnc2)cc1`: the GI50 with RXF 631, in the assay with HOP-18, with KM-20L2, in the assay on SNB-78, with M19-MEL and with DMS-273 was > 100 µM (inactive) each time. The GI50 with DMS-114 was 82 µM (inactive).

On to `O=C(O)c1ccccc1/N=C/c1ccc(N(CCCl)CCCl)cc1`, for which the GI50 with HOP-18 was > 100 µM (inactive); in the assay on XF498 it was 0.01 µM (active); with KM-20L2, > 100 µM (inactive); in the assay on SNB-78 it was > 82.8 µM (inactive); in the assay with M19-MEL, > 100 µM (inactive); in the assay on DMS-273, 81.1 µM (inactive).

For `C/C(=N\N)C(CN(C)C)C(c1ccccc1)c1c(O)c2ccccc2oc1=O` (stereo not given), the GI50 was > 100 µM (inactive) with LXFL 529; > 100 µM (inactive) with RXF 631; > 100 µM (inactive) in the assay on HOP-18; 36.4 µM (inactive) with XF498; > 100 µM (inactive) with KM-20L2; > 100 µM (inactive) with SNB-78. Further, the values for the GI50 in the assay on M19-MEL, in the assay with DMS-273 and in the assay on DMS-114 were 95.7 µM (inactive), > 100 µM (inactive) and 51.9 µM (inactive), respectively.
